For data set [1] the following is noted: Crystal; DTA.
Data set [2] in a line: Molar enthalpy of transition or fusion. To be noted: Crystal; DSC.

1 compound from the NIST ThermoML archive (doi:10.1016/j.tca.2014.01.028) can be followed below.

Numbers after ± are expanded uncertainties.

As to `O=C(c1ccccc1)C(C(=O)c1ccccc1)[C@H](C[N+](=O)[O-])c1ccccc1`, in data set [1], the Normal melting temperature was found to be 135.60 ± 0.5 °C. The “Molar enthalpy of transition or fusion” value in data set [2] was 7.65 ± 0.217 kcal/mol.
